In patent publication US20130302311A1, “EMERGENCY INTERVENTIONS OF ACTIVE CHARCOAL WITH DABIGATRAN ETEXILATE OVERDOSING” (BOEHRINGER INGELHEIM INTERNATIONAL GMBH, priority 2009, published 2013):

Experiments:
[1] = Binding of dabigatran etexilate to activated charcoal in water (simulated stomach fluid), HPLC; assay type: physicochemical; conditions: for dabigatran etexilate level recovered by HPLC: untreated suspension (no charcoal), filtered
Protocol: In these experiments, binding of dabigatran etexilate to active charcoal in water simulates recent ingestion (2-5, preferably 2-3 hrs) of large amounts of dabigatran etexilate in the stomach fluid. Binding of dabigatran to active charcoal in plasma simulates situations where dabigatran was absorbed after ingestion and present in high concentrations in plasma. The contents of 5, 10 and 20 capsules (150 mg/capsule) of dabigatran etexilate were suspended in 100 ml water (approx. stomach volume, pH 2.7, 2.5 and 2.4, respectively). Each suspension was divided in half. To one portion a freshly prepared activated charcoal suspension (125 mg/ml, Ultracarbon®, Merck) was added. Both suspensions (with and without charcoal) were filtered and dabigatran etexilate concentrations were assessed via HPLC.

[2] = Binding of dabigatran to active charcoal in plasma, LC-MS/MS; assay type: physicochemical; conditions: for dabigatran plasma level (mean±SD): untreated plasma (no charcoal)
Protocol: In these experiments, binding of dabigatran etexilate to active charcoal in water simulates recent ingestion (2-5, preferably 2-3 hrs) of large amounts of dabigatran etexilate in the stomach fluid. Binding of dabigatran to active charcoal in plasma simulates situations where dabigatran was absorbed after ingestion and present in high concentrations in plasma. In the plasma experiments, dabigatran was added to a plasma pool at supra-therapeutic concentrations of 470 and 940 ng/ml. The sample was then split, and active charcoal was added to half at the manufacturer's specified concentration (125 mg/ml), or 1:11 dilution of this. Dabigatran plasma levels were measured by a validated LC-MS/MS method.

| SMILES | dabigatran etexilate peak (HPLC) in charcoal-treated suspensions ([1]; activated charcoal suspension (125 mg/ml, Ultracarbon) added, all three tested concentrations) | dabigatran etexilate adsorbed by the activated charcoal ([1]; activated charcoal suspension (125 mg/ml, Ultracarbon), all three tested concentrations) [%] | dabigatran etexilate level recovered by HPLC ([1]; contents of 5 capsules (150 mg/capsule) in 100 ml water, pH 2.7) [mg/mL] | dabigatran etexilate level recovered by HPLC ([1]; contents of 10 capsules (150 mg/capsule) in 100 ml water, pH 2.5) [mg/mL] | dabigatran etexilate level recovered by HPLC ([1]; contents of 20 capsules (150 mg/capsule) in 100 ml water, pH 2.4) [mg/mL] | dabigatran plasma level after addition of activated charcoal ([2]; activated charcoal at 125 mg/ml or 1:11 dilution, dabigatran added at 470 and 940 ng/ml, close to or below lower limit of quantification) [ng/mL] | dabigatran plasma level (mean±SD) ([2]; dabigatran added at 470 ng/ml) [ng/mL] | dabigatran plasma level (mean±SD) ([2]; dabigatran added at 940 ng/ml) [ng/mL] |
| --- | --- | --- | --- | --- | --- | --- | --- | --- |
| CCCCCCOC(=O)NC(=N)c1ccc(NCc2nc3cc(C(=O)N(CCC(=O)OCC)c4ccccn4)ccc3n2C)cc1 [dabigatran etexilate] | no longer detectable | > 99.9 | 8.3 | 15.6 | 29.6 |  |  |  |
| Cn1c(CNc2ccc(C(=N)N)cc2)nc2cc(C(=O)N(CCC(=O)O)c3ccccn3)ccc21 [dabigatran] |  |  |  |  |  | < 1.01 | 394 ± 19.4 | 824 ± 39.3 |
